Source: patent US5411964A, “Phenylalanine-glycine compounds having anti-tumor activity, process for preparation thereof, and pharmaceutical composition containing said compounds” (Kureha Chemical Industry Co., Ltd., priority 1992, dated 1995)

Key:
Sarcoma-180 = assay: Antitumor activity: inhibition of solid Sarcoma-180 tumor implanted subcutaneously in ICR mice; assay type: in vivo; details: day 22, i.p. 10 times every other day, mg/kg: 5-Fu 15, MP 10, 5-CAU 10, Phe+5-Fu 15+15, Phe+MP 15+10, Phe+5-CAU 15+10, Phe-5-Fu 30, Phe'-5-Fu 30, Phe-MP 20, Phe-5-CAU 20; for Average tumor weight ± SD: control 3.438 ± 1.481, in g (unit assumed)
Protocol: The concentration of the solid tumor cells (Sarcoma-180) was aseptically adjusted to 1×10^6 /0.2 ml with a medium [prepared by filtering 10% bovine fetal serum-added MEM (Eagles' Minimum Essential Medium) for sterilization, and stored at 4° C.] and subcutaneously implanted at the axillas of ICR mice (5 weeks old; females; one group consisting of 10 mice). From the next day, the samples (0.15% physiological saline solution) shown in Table 1 were administered intraperitoneally 10 times every other day. On the 22nd day, the tumors were excised and the inhibition rate (IR) was obtained from the weight of the tumors. The inhibition rate (IR) (%) was calculated by the following formula: […]
wherein T is the average tumor weight of the treated group, and C is the average tumor weight of the control group.

Wistar rats = assay: Acute toxicity, oral forced administration to Wistar rats; assay type: in vivo; details: 250 mg/kg by forced administration, fasted male Wistar rats, observed until 14 days
Protocol: (1) The conditions in the feeding chamber were arranged to a temperature of 23°±1° C., a relative humidity of 55±5%, a ventilation frequency of 20 times per hour, and a lighting term of 12 hours. Wistar rats (male; five-week old;. 120 to 141 g) were used. The rats were placed in metallic cages having wire walls in the front and bottom thereof, at the rate of 5 rats per one cage. They were allowed food (MF: Oriental Yeast) and water ad libitum.
The conjugate (I-1) of the present invention obtained from Example 1(5) was suspended in a 1.5% methylcellulose aqueous solution. The suspension was administered by force. The amount of the administration was 1 ml per 100 g body weight of animals forced to fast for 18 hours, that is, 250 mg/kg was administered. Symptoms of addiction and survival were observed hourly up to 8 hours after the administration, then twice a day until 14 days after administration.

[1] = system: pyruvate kinase M2-type isoenzyme; details: low concentration of L-phenylalanine; cited from earlier work

## CCOC(=O)C(NC(=O)[C@@H](N)Cc1ccccc1)n1cc(F)c(=O)[nH]c1=O (mixture of isomers) [Phe'-5-Fu, L-phenylalanyl-2-(5-fluorouracil-1-yl)-D,L-glycineethylester]
Sarcoma-180
  IR (inhibition rate from tumor weight): 76.5%
  Average tumor weight ± SD: 0.808 ± 0.389

## N[C@@H](Cc1ccccc1)C(=O)NC(C(=O)O)n1cc(N(CCCl)CCCl)c(=O)[nH]c1=O (mixture of isomers) [Phe-5-CAU, L-phenylalanyl-2-[5-(bis(2-chloroethyl)amino)uracil-1-yl]-D,L-glycine]
Sarcoma-180
  IR (inhibition rate from tumor weight): 75.2%
  Average tumor weight ± SD: 0.854 ± 0.664

## N[C@@H](Cc1ccccc1)C(=O)NC(C(=O)O)n1cc(F)c(=O)[nH]c1=O (mixture of isomers) [Phe-5-Fu, L-phenylalanyl-2-(5-fluorouracil-1-yl)-D,L-glycine]
Sarcoma-180
  IR (inhibition rate from tumor weight): 77.6%
  Average tumor weight ± SD: 0.770 ± 0.397
Wistar rats
  Survival / death after administration: No death was observed

## O=c1[nH]cc(N(CCCl)CCCl)c(=O)[nH]1 [5-CAU, 5-[bis(2-chloroethyl)amino]uracil, reference compound]
Sarcoma-180
  IR (inhibition rate from tumor weight): 54.2%
  Average tumor weight ± SD: 1.574 ± 1.285

## O=c1[nH]cc(F)c(=O)[nH]1 [5-Fu, 5-fluorouracil, reference compound]
Sarcoma-180
  IR (inhibition rate from tumor weight): 57.3%
  Average tumor weight ± SD: 1.467 ± 1.437

## N[C@@H](Cc1ccccc1)C(=O)O [L-phenylalanine]
[1]
  inhibition of M2-type isoenzyme of pyruvate kinase (in words): selectively inhibited

## N[C@@H](Cc1ccc(N(CCCl)CCCl)cc1)C(=O)O [MP, Melphalan, reference compound]
Sarcoma-180
  IR (inhibition rate from tumor weight): 60.5%
  Average tumor weight ± SD: 1.358 ± 1.369

## CCOC(=O)C(NC(=O)[C@@H](N)Cc1ccccc1)N[C@@H](Cc1ccc(N(CCCl)CCCl)cc1)C(=O)OC (stereo partly drawn) [Phe-MP, L-phenylalanyl-2-[p-(bis(2-chloroethyl)amino)-L-phenylalaninemethylester-2-yl]-D,L-glycineethylester]
Sarcoma-180
  IR (inhibition rate from tumor weight): 72.6%
  Average tumor weight ± SD: 0.943 ± 0.587
